The values that follow come from article PMC9009886, “In vitro and in vivo Anti-leishmanial Potential of [Ag (PTA) 4 ]BF 4 and [Ag(HBPz 3 )(PPh 3 )] Silver Complexes” (Revista da Sociedade Brasileira de Medicina Tropical, 2022).

In general, IC50 refers to the concentration that inhibits the measured activity by half. By CC50 is commonly meant the concentration giving 50% cytotoxicity. Low readings indicate greater toxicity to the cells, high ones lower toxicity to the cells.

Where two headings read alike, the source gives them in different places.

In data set [1] the test system is mammalian TrxR. Set-up: method as in PMID 33238608. The conditions noted are these: purified enzyme and cell extracts; cited from earlier work.
Data set [2] concerns large panel of cancer cell lines. Details: method as in PMID 33238608. The conditions noted are these: cited from earlier work.
In data set [3] the test system is human monocytes. In words: Cytotoxicity (MTT) in human monocytes. The data set is classed as cell-based. The conditions noted are these: human monocytes; for CC50: MTT. The method, then: Human monocytes were obtained after approval from the Research Ethics Committee (CEP-UFAM: 29406319.2.0000.5020) (Appendix B). Blood samples were collected from all patients. Phosphate-buffered saline (PBS) 1 x was added, and the blood/PBS was added gently on Ficoll-Histopaque (Sigma-Aldrich®) [density of 1077] and centrifuged for 30 min/200 g[7]. Peripheral blood mononuclear cells were collected, added PBS 1 x, and centrifuged for 3 min at 400 × g. The cell concentration was adjusted to 10[4] monocytes/mL[7].
(§1) The assay was performed in 96-well plates (KASVI®). The RPMI medium was added to the cells at a concentration of 10[4] cells/mL/well. The metal complexes were added at concentrations of […] in triplicate as […], and Glucantime® was used at the same concentration as the metal complexes. The negative controls used DMSO at 4 concentrations (2%, 1%, 0.50%, and 0.25%), and the RMPI medium containing the cells remained exposed to the substance for up to 24, 48, and 72 h.
(§2) After each period, a solution of [3-(4,5-dimethylthiazol-2yl) -2,5-diphenyltetrazolium] bromide (MTT) was added to the wells at (concentration of 0.5 mg/mL). The plates were incubated for 4 h at 37 °C and then subjected to spectrophotometry (Biotek®) at an absorbance of 590 nm. Three independent trials were performed with peritoneal macrophages and human monocytes.

Data set [4] concerns murine peritoneal macrophages. In words: Cytotoxicity (MTT) in murine peritoneal macrophages. The data set is classed as cell-based, Balb/c (Mus musculus) mice. The following applies: for CC50: peritoneal macrophages, MTT. How it is done: Peritoneal macrophages were extracted from Balb/c (Mus musculus) mice, from colonies of the Central Vivarium at the INPA, with the approval of the Ethics Committee on the Use of Animals (CEUA - INPA 023/2020; Appendix A). The animals were anesthetized with ketamine hydrochloride (Dopalen®), and a ventral incision was made. The RPMI medium was introduced; and the abdominal massage was performed for macrophage activation, followed by aspiration, and centrifuged at 1,500 g for 10 min. Cell concentration was adjusted to 10[4] macrophages/mL[6].
as §1, §2

The subject of data set [5] is lesions caused by L. (L.) amazonensis. Nature of the data set: Topical treatment of lesions in hamsters infected with L. (L.) amazonensis. The format is in vivo, Mesocricetus auratus. The following applies: for Lesion volume (in words): gel topically 0.3 mg/day once a day, Glucantime IM 3 mg (Sb5)/kg/day, 30 days, Ag2 effect after the 14th day. How it is done:
(§3) To prepare the Carbopol®-based gel, Nipagin® was mixed with distilled water until its total solubilization, and then Carpobol® was added. Then, the metal complex was added and incorporated separately in each gel, and triethonolamine was added gradually until a thick gel was obtained. Finally, the metal complexes were mixed at a concentration of 3 mg/L, a value defined for comparative purposes with the positive control of the study (Glucantime®) administered at the same concentration via the intramuscular (IM) route.
(§4) For the assays, 72 adult male aged 60-days golden hamsters (Mesocricetus auratus) that were free of pathogens and had been previously obtained from the Central Vivarium at the INPA (CEUA 060/2018) were used [Appendix C]. The animals were housed in stainless steel cages in air-conditioned rooms, with controlled light, temperature (22-25 °C), humidity (50-60%), and food and water ad libitum.
Animals were separated into six groups. Five groups were infected with 100 µL of a solution containing 10[6] promastigote/mL of Leishmania spp. The first experiment involved 36 animals infected with L. (L.) amazonensis, and the second experiment involved 36 animals infected with L. (V.) guyanensis. Animals were divided into the following groups:
• Group I: Uninfected control • Group II: Untreated, infected control • Group III: Infected and treated with Glucantime® (IM) • Group IV: Infected and treated with Ag1 (lesions treated topically once a day) • Group V: Infected and treated with Ag2 (lesions treated topically once a day) • Group VI: Infected and treated with gel without the addition of complexes (lesions treated topically once a day)
To evaluate the course of infection, the total volume of the lesion (length, width, and height) was measured using a caliper (Zaas® Precision). Animals were weighed once per week. After 30 days of treatment, the animals were euthanized using ketamine hydrochloride (Dopalen®) combined with xylazine hydrochloride (Anasedan®) following the Animal Use Ethics Commission (CEUA) protocols (060/2018).
For parasitological studies, a sample of the tissue from the lesion region lesion in each animal was sectioned, and the fragment was printed on a glass slide and stained using the Panoptic kit (Laborclin®). The slides were evaluated using optical microscopy, 30 fields were counted, and the analysis and quantification of infected and uninfected cells and the quantity of internalized amastigote forms were performed. Fragments of each animal’s skin lesions and liver were also sectioned and cultured in an NNN medium for 7 days. After this period, an aliquot containing the fragments was evaluated using optical microscopy for parasitological analysis.
For the in vivo results, we used two-way analysis of variance to evaluate the statistical significance between the groups, followed by the Tukey test to compare the means of the groups at a 95% confidence interval.

In data set [6] the test system is lesions caused by L. (V.) guyanensis. In words: Topical treatment of lesions in hamsters infected with L. (V.) guyanensis. The format is in vivo, Mesocricetus auratus. The method, then:
as §3, §4
Animals were separated into six groups. Five groups were infected with 100 µL of a solution containing 10[6] promastigote/mL of Leishmania spp. The first experiment involved 36 animals infected with L. (L.) amazonensis, and the second experiment involved 36 animals infected with L. (V.) guyanensis. Animals were divided into the following groups: […]
To evaluate the course of infection, the total volume of the lesion (length, width, and height) was measured using a caliper (Zaas® Precision). […]
For parasitological studies, a sample of the tissue from the lesion region lesion in each animal was sectioned, and the fragment was printed on a glass slide and stained using the Panoptic kit (Laborclin®). The slides were evaluated using optical microscopy, 30 fields were counted, and the analysis and quantification of infected and uninfected cells and the quantity of internalized amastigote forms were performed. […] After this period, an aliquot containing the fragments was evaluated using optical microscopy for parasitological analysis. […]

The subject of data set [7] is amastigote forms of L. (V.) guyanensis in murine peritoneal macrophages. Nature of the data set: Assay with amastigote forms of L. (V.) guyanensis in peritoneal macrophages. The format is cell-based, Leishmania (Viannia) guyanensis. The method, then: (§5) The assay against amastigote forms was performed using murine peritoneal macrophages and human monocytes, obtained as described for the cytotoxicity assay. The cells were incubated for 48 h in a 24 well-plate containing glass coverslips with the RPMI medium, and cell volume adjusted to 10[5] macrophages/monocyte/mL.
(§6) The adhered cells were infected with promastigote forms of Leishmania spp. and left for 2 h. The test substances were then added at the concentrations used in previous trials and exposed for 24, 48, and 72 h. Coverslips were stained using a Panoptic kit (Laborclin® - Laborclin Products for Laboratories Ltd, Pinhais, Brazil) and quantified using optical microscopy at 400 × magnification. A total of 100 cells were quantified to evaluate the number of infected and uninfected macrophages and internalized amastigotes. Three independent assays were performed on peritoneal macrophages and human monocytes.
(§7) The SI is the relationship between the cytotoxic activity of the tested compound and its anti-leishmanial activity. In our study, the SI was calculated from the ratio of cytotoxicity for macrophages/monocytes with a cytotoxic concentration at 50% (CC50) and action against amastigote forms in each of these cell types with an inhibitory concentration at 50% (IC50), using the equation: SI = CC50IC50-AMA^3
(§8) Statistical analysis was performed using linear regression to calculate IC50 using GraphPad Prism® (GraphPad Software Inc. version 6.0, for Windows). Results are expressed as mean ± standard deviation.

For data set [8], the system named is amastigote forms of L. (V.) guyanensis in human monocytes. In words: Assay with amastigote forms of L. (V.) guyanensis in human monocytes. The format is cell-based, Leishmania (Viannia) guyanensis. How it is done:
as §5, §6, §8

The subject of data set [9] is promastigote forms of Leishmania (Leishmania) amazonensis (IM5584). Nature of the data set: Assay with promastigote forms, L. (L.) amazonensis. The following applies: L. (L.) amazonensis (IM5584), read-out: IC50 values, promastigote forms. The format is cell-based. The method, then:
(§9) We used the species L. (Leishmania) amazonensis [L. (L.) amazonensis] (MHOM/BR/2009/IM5584) and L. (Viannia) guyanensis [L. (V.) guyanensis] (MHOM/BR/1975/M4147), which had been cultivated in the biphasic medium Novy - MacNeal - Nicolle (NNN) and amplified in the RPMI liquid medium (Himedia®). The culture was centrifuged for 15 min at 4,400 g. Parasites were adjusted to a concentration of 10[4] parasites/mL.
(§10) The parasites were used at a concentration of 10[4] parasites/mL. The assay was performed in 96-well plates (KASVI®), and then the same procedure and concentrations of the substances were used in the cytotoxicity assay, with negative control and culture medium containing parasites. The activity of the complexes was evaluated at 24, 48, and 72 h intervals using a Neubauer chamber. In addition, cellular viability was evaluated using the assay. Three independent tests were conducted.
as §8

The subject of data set [10] is amastigote forms of L. (L.) amazonensis internalized in murine peritoneal macrophages. In words: Assay with amastigote forms of L. (L.) amazonensis in peritoneal macrophages. The data set is classed as cell-based, Leishmania (Leishmania) amazonensis. How it is done:
as §5, §6, §7, §8

The subject of data set [11] is promastigote forms of Leishmania (Viannia) guyanensis (M4147). In words: Assay with promastigote forms, L. (V.) guyanensis. The data set is classed as cell-based. How it is done:
as §9, §10, §8

Data set [12] has as its system amastigote forms of L. (L.) amazonensis in human monocytes. Nature of the data set: Assay with amastigote forms of L. (L.) amazonensis in human monocytes. The data set is classed as cell-based, Leishmania (Leishmania) amazonensis. The method, then: as §5, §6, §8

`[Ag+].c1ccc(P(c2ccccc2)c2ccccc2)cc1.c1cnn([BH-](n2cccn2)n2cccn2)c1` [Ag2, [Ag(HBPz3)(PPh3)]]: the “TrxR inhibition (in words)” value in data set [1] is “very strong inhibitor”. Besides, the “Cytotoxic activity toward cancer cell lines (in words)” value in [2] is given as “remarkable cytotoxic activity”. Besides, the “Cytotoxicity (in words)” value in data set [3] and in [4] (murine peritoneal macrophages) was “did not show cytotoxic activity” throughout. In data set [5] (after 30 days of treatment), the “Infected cells / internalized amastigotes in lesion fragments” value is listed as “statistically significant difference compared to the group without treatment”. Besides, the “Mean difference in lesion volume versus Glucantime” value in data set [5] (after the 14th day of treatment, no statistical difference) stood at 4.38. Moreover, the “Lesion volume (in words)” value in data set [5] was “reduction in lesion volume”.
With “meglumine antimoniate [Glucantime®, reference compound]”, the “Viable parasites in cultures of lesion fragments (NNN medium)” value was “presence of viable parasites” in [6] and “Viable parasites were observed” in data set [5]. The IC50 in [7] (24 h) worked out at 48.2 ± 0.77 µM; in data set [7] (48 h) it was 70.2 ± 1.62 µM; in [7] (72 h) it was 101 ± 1.02 µM; in [8] (24 h), 374.7 ± 0.64 µM; in data set [8] (48 h), 372.6 ± 1.75 µM; in data set [8] (72 h), 427.8 ± 1.32 µM. Besides, the IC50 is 292.1 ± 2.4 µM in [9] (24 h); 343.1 ± 2.37 µM in data set [9] (48 h); 435.6 ± 3.03 µM in data set [9] (72 h); 57.1 ± 0.77 µM in data set [10] (24 h); 279.2 ± 1.95 µM in data set [10] (48 h); 318.7 ± 1.48 µM in data set [10] (72 h). Also, the IC50 in data set [11] (24 h) worked out at 286.6 ± 1.28 µM; in data set [11] (48 h) it was 376.5 ± 2.74 µM; in data set [11] (72 h), 453.7 ± 3.18 µM; in [12] (24 h), 294.6 ± 0.38 µM; in data set [12] (48 h), 317.2 ± 1.75 µM; in data set [12] (72 h) it was 391 ± 1.38 µM. In addition, the CC50 was determined as 149 ± 1.52 µM in [3] (24 h); 255 ± 2.74 µM in [3] (48 h); 398.4 ± 1.18 µM in data set [3] (72 h); 179 ± 0.23 µM in data set [4] (24 h); 205.2 ± 1.25 µM in data set [4] (48 h); 212 ± 2.48 µM in [4] (72 h). Also, in data set [5] (30 days of treatment), the Clinical cure entry is reported as “no clinical cure was obtained”. Besides, the “Lesion volume (in words)” value in [5] was “reduction in lesion volume”.
